Experiment [1] relates to Candida albicans. As to the kind of experiment: Antifungal activity against MDR knockout Candida albicans DSY1024 after 24 hrs by XTT assay. It is filed as functional, organism-based. The conditions noted are these: DSY1024, 24 h.
The test system of experiment [2] is Candida albicans. Put plainly: Antifungal activity against wild type Candida albicans SC5314 after 24 hrs by XTT assay. It is filed as functional, organism-based. The settings on record: SC5314, 24 h. (In general: Tetrazolium assays rely on reduction of a dye to a coloured formazan, in cell work by metabolically active cells.)

≈ marks a conversion by molar mass, not a printed value.

`COc1cc2c(c(O)c1C)C(=O)[C@@]1(O)c3cccc(O)c3O[C@@H](OC)[C@@H]1O2`: the IC50 in experiment [1] and in experiment [2] was above 200 µg/mL throughout.

Turning to `COc1ccccc1-c1coc2cc(O)c(C)c(O)c2c1=O`, the IC50 in experiment [1] came out at 25 µg/mL (≈ 83.8 µM); in experiment [2], 16 µg/mL (≈ 53.6 µM).

Regarding `COc1cc2oc3c(c(=O)c2c(O)c1C)-c1cccc(O)c1OC3O` (stereo unspecified) [9-O-METHYL-4-HYDROXYBOERAVINONE B], the IC50 in experiment [1] was 48 µg/mL (≈ 140 µM); in experiment [2], above 200 µg/mL.

Regarding `C[C@@H]1[C@H](O)[C@@H](C)/C=C/C=C/C=C/C=C/C=C/C=C/C=C/[C@H](O[C@@H]2O[C@H](C)[C@@H](O)[C@H](N)[C@@H]2O)C[C@@H]2O[C@](O)(C[C@@H](O)C[C@@H](O)[C@H](O)CC[C@@H](O)C[C@@H](O)CC(=O)O[C@H]1C)C[C@H](O)[C@H]2C(=O)O` [AMPHOTERICIN B], the IC50 in experiment [1] came out at 0.19 µg/mL (≈ 0.206 µM); in experiment [2], 0.15 µg/mL (≈ 0.162 µM).

Regarding `COc1ccc(-c2coc3cc(O)cc(O)c3c2=O)cc1` [BIOCHANIN], the IC50 in experiment [1] and in experiment [2] was above 100 µg/mL in each case.

As to `O=c1c(-c2ccc(O)cc2)coc2cc(O)ccc12` [DAIDZEIN], the IC50 in experiment [1] and in experiment [2] was above 100 µg/mL each time.

In the case of `OC(Cn1cncn1)(Cn1cncn1)c1ccc(F)cc1F` [FLUCONAZOLE], the IC50 in experiment [1] came out at 6.7 µg/mL (≈ 21.9 µM); in experiment [2], 0.18 µg/mL (≈ 0.588 µM).

With `O=c1c(-c2ccc(O)cc2)coc2cc(O)cc(O)c12` [GENISTEIN], the IC50 in experiment [1] and in experiment [2] was above 100 µg/mL each time.

Broadly, the IC50 is the concentration at which inhibition is half-maximal. High values mean lower potency, low ones higher potency.

The values are drawn from ChEMBL document CHEMBL1150567, “Three new phenolic compounds from a manipulated plant cell culture, Mirabilis jalapa” (J Nat Prod, 2001).
